Dmax and DC50 data for six compounds are collected here from US12559506B2, “Indazole based compounds and associated methods of use” (Arvinas Operations, Inc., priority 2021, dated 2026).

Type in all cases: cell-based
The target in test [1] is T1, LRRK2 (endogenous, HiBit tagged) (Homo sapiens, UniProt Q5S007).
T1 construct: endogenous in cells; host or cells: HEK293 cells with HiBit knock-in at the endogenous LRRK2 locus, stably expressing firefly luciferase
In words: Endogenous LRRK2 degradation assay, endogenous gene C-terminally HiBit-tagged in HEK293 cells (Nano-Glo Dual Luciferase). The conditions noted are these: endogenous HiBit-tagged LRRK2 in HEK293 cells, 24 hours; for Dmax: read-out: **Endogenous WT Dmax (%); for DC50: read-out: *Endogenous WT DC50. An outline of the steps:
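LRRK2-HiBit quantified via Nano-Glo Dual Luciferase in HEK293 knock-in cells co-expressing firefly luciferase, after 24 h exposure to compound (1 μM final top, 1:3, 11 points). Values normalised to DMSO median per plate and curve-fitted; Alamar Blue viability run alongside.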
On the technique in general: With HiBiT, luminescence reflects the tagged protein that the partner subunit can reach.

In another test the target is T2, wildtype LRRK2 (Homo sapiens, UniProt Q5S007).
T2 construct: expressed in transfected cells; host or cells: HEK293 (ATCC CRL-1573), transient transfection, mammalian expression vector with ubiquitin promoter
In words: LRRK2 degradation assay, HiBit-tagged wildtype LRRK2 expressed from plasmid in HEK293 cells (Nano-Glo Dual-Luciferase). To be noted: 24 hours; for Dmax: read-out: **WT Dmax (%); for DC50: read-out: *WT DC50. The method in brief: (§1)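 HEK293 cells co-transfected with C-terminal HiBiT-tagged LRRK2 (WT or G2019S, ubiquitin promoter) and firefly luciferase, then dosed 24 h at 37 °C. HiBiT/firefly ratio normalized to DMSO median; DC50 and Dmax from per-plate curve fits, six replicates over two days.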

In another test the target is T3, G2019S LRRK2 (Homo sapiens, UniProt Q5S007, G2019S).
T3 construct: expressed in transfected cells; host or cells: HEK293 (ATCC CRL-1573), transient transfection, mammalian expression vector with ubiquitin promoter
In words: LRRK2 degradation assay, HiBit-tagged G2019S LRRK2 expressed from plasmid in HEK293 cells (Nano-Glo Dual-Luciferase). To be noted: 24 hours. An outline of the steps:
as §1

Setting [2] is: HiBit-tagged wildtype LRRK2 in HEK293 cells.
[3] abbreviates: HiBit-tagged G2019S LRRK2 in HEK293 cells.
Where [4] appears, read: HiBit-tagged wildtype LRRK2, HEK293 cells.
Where [5] appears, read: HiBit-tagged G2019S LRRK2, HEK293 cells.

SMILES strings stand for the structures. Read-outs that look alike come from different tables or passages of the source.

T1 sequence (Q5S007 whole entry): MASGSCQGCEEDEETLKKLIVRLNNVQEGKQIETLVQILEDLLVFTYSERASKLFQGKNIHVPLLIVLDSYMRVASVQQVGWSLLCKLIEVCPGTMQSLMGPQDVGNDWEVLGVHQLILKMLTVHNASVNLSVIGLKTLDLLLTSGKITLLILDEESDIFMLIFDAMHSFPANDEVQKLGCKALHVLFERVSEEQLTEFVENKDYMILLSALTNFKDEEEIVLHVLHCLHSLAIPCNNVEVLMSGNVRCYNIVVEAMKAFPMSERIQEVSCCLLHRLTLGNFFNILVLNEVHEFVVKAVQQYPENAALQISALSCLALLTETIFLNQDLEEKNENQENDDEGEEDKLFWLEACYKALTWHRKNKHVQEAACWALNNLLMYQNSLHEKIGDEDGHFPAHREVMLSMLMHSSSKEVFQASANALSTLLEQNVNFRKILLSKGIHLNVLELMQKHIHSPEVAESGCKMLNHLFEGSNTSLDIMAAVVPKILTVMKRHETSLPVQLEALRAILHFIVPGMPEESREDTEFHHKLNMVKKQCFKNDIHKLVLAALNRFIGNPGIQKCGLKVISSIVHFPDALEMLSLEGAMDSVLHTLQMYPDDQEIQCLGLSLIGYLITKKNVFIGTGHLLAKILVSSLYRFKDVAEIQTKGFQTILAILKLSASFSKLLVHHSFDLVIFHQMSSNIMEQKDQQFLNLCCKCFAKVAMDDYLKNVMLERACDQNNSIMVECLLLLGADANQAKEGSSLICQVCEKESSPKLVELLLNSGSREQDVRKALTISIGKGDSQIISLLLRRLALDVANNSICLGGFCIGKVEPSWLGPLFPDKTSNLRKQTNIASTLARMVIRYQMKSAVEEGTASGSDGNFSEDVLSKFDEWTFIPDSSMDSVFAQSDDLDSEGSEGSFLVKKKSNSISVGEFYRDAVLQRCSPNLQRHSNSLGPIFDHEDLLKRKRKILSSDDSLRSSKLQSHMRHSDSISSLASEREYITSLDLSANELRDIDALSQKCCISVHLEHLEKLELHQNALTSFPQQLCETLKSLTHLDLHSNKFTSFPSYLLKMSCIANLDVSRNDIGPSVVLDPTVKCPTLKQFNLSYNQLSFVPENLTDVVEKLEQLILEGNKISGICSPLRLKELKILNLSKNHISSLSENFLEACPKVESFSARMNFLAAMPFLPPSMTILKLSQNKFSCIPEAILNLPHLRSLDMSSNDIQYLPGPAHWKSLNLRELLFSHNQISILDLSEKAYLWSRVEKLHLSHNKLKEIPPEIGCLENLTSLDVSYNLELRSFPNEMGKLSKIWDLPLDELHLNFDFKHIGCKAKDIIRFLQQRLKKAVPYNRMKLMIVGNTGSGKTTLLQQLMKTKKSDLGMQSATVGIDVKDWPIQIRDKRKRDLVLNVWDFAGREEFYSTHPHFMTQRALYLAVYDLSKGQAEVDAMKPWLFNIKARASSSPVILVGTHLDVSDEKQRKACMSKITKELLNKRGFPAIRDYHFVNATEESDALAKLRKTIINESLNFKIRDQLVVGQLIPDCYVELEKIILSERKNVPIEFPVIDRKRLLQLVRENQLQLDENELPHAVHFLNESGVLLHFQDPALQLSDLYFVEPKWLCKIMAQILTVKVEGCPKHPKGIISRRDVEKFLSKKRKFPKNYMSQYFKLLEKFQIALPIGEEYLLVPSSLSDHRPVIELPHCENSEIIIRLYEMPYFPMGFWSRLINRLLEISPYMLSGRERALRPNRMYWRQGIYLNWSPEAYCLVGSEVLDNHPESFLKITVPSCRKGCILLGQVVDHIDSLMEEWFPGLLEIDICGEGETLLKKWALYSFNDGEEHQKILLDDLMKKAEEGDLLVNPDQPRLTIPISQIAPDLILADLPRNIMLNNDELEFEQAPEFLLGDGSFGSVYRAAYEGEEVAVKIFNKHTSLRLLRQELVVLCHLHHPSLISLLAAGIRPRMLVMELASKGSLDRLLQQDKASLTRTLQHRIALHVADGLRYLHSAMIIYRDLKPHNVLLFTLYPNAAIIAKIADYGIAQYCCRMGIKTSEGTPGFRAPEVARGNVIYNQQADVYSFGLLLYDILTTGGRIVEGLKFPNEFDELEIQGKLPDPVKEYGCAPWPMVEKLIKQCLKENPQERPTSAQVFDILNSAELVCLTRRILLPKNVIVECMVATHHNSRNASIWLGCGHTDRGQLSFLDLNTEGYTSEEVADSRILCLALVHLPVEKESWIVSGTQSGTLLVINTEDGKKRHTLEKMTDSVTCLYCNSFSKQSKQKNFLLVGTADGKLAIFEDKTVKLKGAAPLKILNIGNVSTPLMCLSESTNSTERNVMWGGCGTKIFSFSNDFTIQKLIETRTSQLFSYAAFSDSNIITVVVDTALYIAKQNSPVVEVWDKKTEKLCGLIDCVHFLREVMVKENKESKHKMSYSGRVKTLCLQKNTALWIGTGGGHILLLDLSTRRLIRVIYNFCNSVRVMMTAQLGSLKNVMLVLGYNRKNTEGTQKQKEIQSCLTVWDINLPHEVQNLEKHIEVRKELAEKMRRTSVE
T2 sequence (Q5S007 whole entry): as above
T3 sequence (Q5S007 whole entry G2019S): as the sequence (Q5S007 whole entry) above, with G2019S counted along it

With `CC1(Oc2ccc3n[nH]c(-c4cc(N5CCC(COC6CCN(CC7CCN(c8ccc9c(c8)C(=O)N(C8CCC(=O)NC8=O)C9=O)CC7)CC6)CC5)ncn4)c3c2)CC1` (centres unmarked) [Compound 61, 2-(2,6-dioxo-3-piperidyl)-5-[4-[[4-[[1-[6-[5-(1-methylcyclopropoxy)-2H-indazol-3-yl]pyrimidin-4-yl]-4-piperidyl]methoxy]-1-piperidyl]methyl]-1-piperidyl]isoindoline-1,3-dione], the Dmax (in test [1]; on wildtype LRRK2 (setting [2]); at G2019S LRRK2 (setting [3])) was not below 70% each time. Moreover, the DC50 (in test [1]; on wildtype LRRK2 (setting [2]); on G2019S LRRK2 (setting [3])) was less than 10 nM in each case.
On to `CC1(Oc2ccc3[nH]nc(-c4cc(N5CCN(C[C@H]6CC(=O)N(CC7CCN(c8ccc9c(c8)C(=O)N(C8CCC(=O)NC8=O)C9=O)CC7)C6)CC5)ncn4)c3c2)CC1` (single isomer, unassigned) [Compound 120], for which the Dmax (in test [1]; at wildtype LRRK2 (setting [2]); at G2019S LRRK2 (setting [3])) was 50 to 70% throughout. Moreover, the DC50 (in test [1]; on wildtype LRRK2 (setting [2]); on G2019S LRRK2 (setting [3])) was less than 10 nM in each case.
For the compound `CC1(Oc2ccc3[nH]nc(-c4ccnc(N5CC(F)(CN6CCN(CC7CCN(c8ccc9c(c8)C(=O)N(C8CCC(=O)NC8=O)C9=O)CC7)CC6)C5)c4)c3c2)CC1` (centres unmarked) [Compound 132, 2-(2,6-dioxopiperidin-3-yl)-5-[4-({4-[(3-fluoro-1-{4-[5-(1-methylcyclopropoxy)-1H-indazol-3-yl]pyridin-2-yl}azetidin-3-yl)methyl]piperazin-1-yl}methyl)piperidin-1-yl]-2,3-dihydro-1H-isoindole-1,3-dione], the Dmax in test [1] is not below 70%; on wildtype LRRK2 (setting [2]), 50 to 70%; on G2019S LRRK2 (setting [3]) it was 50 to 70%. For the same compound, the DC50 (in test [1]; on wildtype LRRK2 (setting [2]); on G2019S LRRK2 (setting [3])) was less than 10 nM each time.
Consider `CC1(Oc2ccc3n[nH]c(-c4cc(N5CC(F)(CN6CCN(CC7CCN(c8ccc9c(c8)C(=O)N(C8CCC(=O)NC8=O)C9=O)CC7)CC6)C5)ncn4)c3c2)CC1` (centres unmarked) [Compound 131, 2-(2,6-dioxo-3-piperidyl)-5-[4-[[4-[[3-fluoro-1-[6-[5-(1-methylcyclopropoxy)-2H-indazol-3-yl]pyrimidin-4-yl]azetidin-3-yl]methyl]piperazin-1-yl]methyl]-1-piperidyl]isoindoline-1,3-dione], for which the Dmax (in test [1]; at wildtype LRRK2 (setting [2]); at G2019S LRRK2 (setting [3])) was not below 70% throughout. In addition, the DC50 (in test [1]; on wildtype LRRK2 (setting [2]); at G2019S LRRK2 (setting [3])) was less than 10 nM throughout.
Turning to `CC1(Oc2ccc3[nH]nc(-c4ccnc(N5CCC56CN(CC5CCN(CC7CCN(c8ccc9c(c8)C(=O)N(C8CCC(=O)NC8=O)C9=O)CC7)CC5)C6)c4)c3c2)CC1` (centres unmarked) [Compound 162, 2-(2,6-dioxo-3-piperidyl)-5-[4-[[4-[[1-[4-[5-(1-methylcyclopropoxy)-1H-indazol-3-yl]-2-pyridyl]-1,6-diazaspiro[3.3]heptan-6-yl]methyl]-1-piperidyl]methyl]-1-piperidyl]isoindoline-1,3-dione], on wildtype LRRK2 (setting [4]), the Dmax is less than 50% and the DC50 lay in the range of 50 to 100 nM. On G2019S LRRK2 (setting [5]), the DC50 is not below 100 nM and the Dmax was less than 50%.
Take `C[C@H]1CN(c2cc(-c3[nH]nc4ccc(OC5(C)CC5)cc34)ncn2)CCN1Cc1cn(CC2CCN(c3ccc4c(c3)C(=O)N(C3CCC(=O)NC3=O)C4=O)CC2)nn1` (stereo partly drawn) [Compound 168, 2-(2,6-dioxo-3-piperidyl)-5-[4-[[4-[[(2S)-2-methyl-4-[6-[5-(1-methylcyclopropoxy)-2H-indazol-3-yl]pyrimidin-4-yl]piperazin-1-yl]methyl]triazol-1-yl]methyl]-1-piperidyl]isoindoline-1,3-dione]: the Dmax at wildtype LRRK2 (setting [4]) and at G2019S LRRK2 (setting [5]) was less than 50% throughout. In addition, the figures for the DC50 at wildtype LRRK2 (setting [4]) and at G2019S LRRK2 (setting [5]) were less than 10 nM and 10 to 50 nM, respectively.

A word on the Dmax: it is the greatest extent of degradation seen. By DC50 is commonly meant the concentration at which degradation of the target reaches its halfway point.
